According to ChEMBL document CHEMBL1136038, “Parallel solution- and solid-phase synthesis of spiropyrrolo-pyrroles as novel neurokinin receptor ligands” (Bioorg Med Chem Lett, 2002):

These compounds were tested against Substance-P receptor (Homo sapiens, UniProt P25103) (assay: Affinity for human Tachykinin receptor 1 expressed in CHO cells).
Format: cell-based

Sequence of Substance-P receptor (P25103 whole entry): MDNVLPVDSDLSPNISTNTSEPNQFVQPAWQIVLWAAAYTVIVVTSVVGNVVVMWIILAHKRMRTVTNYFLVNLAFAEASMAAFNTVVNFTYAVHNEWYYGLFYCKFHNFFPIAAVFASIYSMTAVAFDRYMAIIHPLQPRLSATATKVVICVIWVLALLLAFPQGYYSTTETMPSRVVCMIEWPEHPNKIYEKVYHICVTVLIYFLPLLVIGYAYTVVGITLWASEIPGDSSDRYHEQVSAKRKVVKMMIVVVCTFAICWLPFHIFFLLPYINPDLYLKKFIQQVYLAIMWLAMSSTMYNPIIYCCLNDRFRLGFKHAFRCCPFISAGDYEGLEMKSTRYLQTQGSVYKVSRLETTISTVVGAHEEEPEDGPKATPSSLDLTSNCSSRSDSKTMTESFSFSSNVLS

Row | Ki | SMILES
1 | 302 nM | CC(C)(C)C(=O)N1CCC2(CC1)C1C(=O)N(c3ccccc3)C(=O)C1CN2C(=O)c1cc(C(F)(F)F)cc(C(F)(F)F)c1 (configuration not stated)
2 | 501 nM | O=C1C2CN(C(=O)c3sc4ccccc4c3Cl)C3(CCNCC3)C2C(=O)N1Cc1cc(C(F)(F)F)cc(C(F)(F)F)c1 (configuration not stated)
3 | 263 nM | CS(=O)(=O)N1CCC2(CC1)C1C(=O)N(Cc3cc(C(F)(F)F)cc(C(F)(F)F)c3)C(=O)C1CN2C(=O)c1ccc2ccccc2c1 (configuration not stated)
4 | 75.9 nM | Cc1noc(C)c1S(=O)(=O)N1CCC2(CC1)C1C(=O)N(c3ccccc3)C(=O)C1CN2C(=O)c1cc(C(F)(F)F)cc(C(F)(F)F)c1 (configuration not stated)
5 | 794 nM | COc1ccccc1C(=O)N1CC2C(=O)N(C)C(=O)C2C12CCN(C(=O)c1cc(C(F)(F)F)cc(C(F)(F)F)c1)CC2 (configuration not stated)
6 | 2290 nM | O=C1C2CN(C(=O)COCc3ccccc3)C3(CCNCC3)C2C(=O)N1Cc1cc(C(F)(F)F)cc(C(F)(F)F)c1 (configuration not stated)

Second part, the compound before the results:

Row | SMILES | Ki
7 | O=C1COc2ccc(S(=O)(=O)N3CCC4(CC3)C3C(=O)N(c5ccccc5)C(=O)C3CN4C(=O)c3cc(C(F)(F)F)cc(C(F)(F)F)c3)cc2N1 (configuration not stated) | 30.9 nM
8 | CN1C(=O)C2CN(Cc3cccs3)C3(CCN(C(=O)c4cc(C(F)(F)F)cc(C(F)(F)F)c4)CC3)C2C1=O (configuration not stated) | 513 nM
9 | O=C(c1cc(C(F)(F)F)cc(C(F)(F)F)c1)N1CCC2(CC1)C1C(=O)N(c3ccccc3)C(=O)C1CN2C(=O)CN1CCOCC1 (configuration not stated) | 8.32 nM
10 | CN1C(=O)C2CN(S(=O)(=O)c3ccc4ccccc4c3)C3(CCN(C(=O)c4cc(C(F)(F)F)cc(C(F)(F)F)c4)CC3)C2C1=O (configuration not stated) | 38.9 nM
11 | COc1ccc(OC)c(S(=O)(=O)N2CCC3(CC2)C2C(=O)N(c4ccccc4)C(=O)C2CN3C(=O)c2cc(C(F)(F)F)cc(C(F)(F)F)c2)c1 (configuration not stated) | 30.2 nM
12 | CS(=O)(=O)N1CC2C(=O)N(c3ccccc3)C(=O)C2C12CCN(C(=O)c1cc(C(F)(F)F)cc(C(F)(F)F)c1)CC2 (configuration not stated) | 5.13 nM
